The record followed here is ChEMBL document CHEMBL2321810, “QSAR investigation of NaV1.7 active compounds using the SVM/Signature approach and the Bioclipse Modeling platform” (Bioorg Med Chem Lett, 2013).

The target of this assay is Sodium channel protein type 9 subunit alpha (Homo sapiens, UniProt Q15858). As to the kind of experiment: cell-based.
Sodium channel protein type 9 subunit alpha, sequence (Q15858 whole entry): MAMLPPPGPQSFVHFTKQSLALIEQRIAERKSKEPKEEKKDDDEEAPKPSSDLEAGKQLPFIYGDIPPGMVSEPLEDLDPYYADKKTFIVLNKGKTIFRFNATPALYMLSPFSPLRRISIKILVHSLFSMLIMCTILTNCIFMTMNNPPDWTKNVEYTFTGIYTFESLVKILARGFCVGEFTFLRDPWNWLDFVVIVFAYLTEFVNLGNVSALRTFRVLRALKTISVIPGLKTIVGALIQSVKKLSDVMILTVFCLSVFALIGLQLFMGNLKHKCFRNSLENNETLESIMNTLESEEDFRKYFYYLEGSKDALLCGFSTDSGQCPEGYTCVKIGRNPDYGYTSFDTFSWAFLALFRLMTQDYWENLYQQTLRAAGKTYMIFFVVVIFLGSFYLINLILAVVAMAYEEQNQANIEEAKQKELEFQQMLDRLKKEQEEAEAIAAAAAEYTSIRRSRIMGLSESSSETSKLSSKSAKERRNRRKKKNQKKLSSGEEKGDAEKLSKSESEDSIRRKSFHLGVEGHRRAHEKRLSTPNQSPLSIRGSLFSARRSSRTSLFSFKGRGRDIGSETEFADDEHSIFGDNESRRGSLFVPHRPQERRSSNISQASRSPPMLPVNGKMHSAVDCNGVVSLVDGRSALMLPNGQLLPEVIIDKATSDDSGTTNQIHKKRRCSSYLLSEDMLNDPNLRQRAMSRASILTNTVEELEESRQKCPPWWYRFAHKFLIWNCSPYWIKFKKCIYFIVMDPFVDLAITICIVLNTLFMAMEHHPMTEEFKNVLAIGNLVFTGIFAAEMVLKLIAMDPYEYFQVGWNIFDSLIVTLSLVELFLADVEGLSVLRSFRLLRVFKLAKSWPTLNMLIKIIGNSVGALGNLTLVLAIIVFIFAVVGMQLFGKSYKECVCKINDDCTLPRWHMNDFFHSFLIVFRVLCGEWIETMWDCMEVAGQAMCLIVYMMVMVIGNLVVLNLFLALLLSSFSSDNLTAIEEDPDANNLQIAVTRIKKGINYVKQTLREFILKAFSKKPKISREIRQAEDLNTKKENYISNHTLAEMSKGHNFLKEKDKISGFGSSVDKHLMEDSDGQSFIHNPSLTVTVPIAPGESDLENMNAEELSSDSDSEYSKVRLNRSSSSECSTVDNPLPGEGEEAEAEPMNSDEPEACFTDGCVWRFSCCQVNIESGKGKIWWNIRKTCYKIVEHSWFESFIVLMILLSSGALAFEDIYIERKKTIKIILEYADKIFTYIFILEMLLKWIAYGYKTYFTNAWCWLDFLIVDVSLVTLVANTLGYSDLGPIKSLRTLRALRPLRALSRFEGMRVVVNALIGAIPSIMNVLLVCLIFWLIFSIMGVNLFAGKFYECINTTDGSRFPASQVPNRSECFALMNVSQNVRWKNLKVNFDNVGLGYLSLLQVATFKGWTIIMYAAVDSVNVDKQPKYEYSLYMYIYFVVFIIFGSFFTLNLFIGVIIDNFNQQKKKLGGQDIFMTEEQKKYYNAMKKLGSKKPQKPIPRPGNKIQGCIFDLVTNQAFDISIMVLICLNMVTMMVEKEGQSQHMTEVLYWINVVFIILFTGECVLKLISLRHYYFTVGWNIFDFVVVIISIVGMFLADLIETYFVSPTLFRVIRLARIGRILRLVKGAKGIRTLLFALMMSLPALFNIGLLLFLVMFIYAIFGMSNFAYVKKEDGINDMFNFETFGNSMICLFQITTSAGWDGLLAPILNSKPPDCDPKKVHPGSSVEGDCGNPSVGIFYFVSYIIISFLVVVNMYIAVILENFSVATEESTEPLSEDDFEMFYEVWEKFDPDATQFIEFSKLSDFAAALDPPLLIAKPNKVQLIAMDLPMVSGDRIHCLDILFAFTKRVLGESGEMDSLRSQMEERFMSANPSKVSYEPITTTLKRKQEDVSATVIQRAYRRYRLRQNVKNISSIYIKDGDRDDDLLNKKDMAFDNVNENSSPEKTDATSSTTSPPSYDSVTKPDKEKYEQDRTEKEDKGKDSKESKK
Take `O=S(=O)(Nc1nncs1)c1ccc(Oc2ccc(Cl)cc2-c2ccn[nH]2)c(Cl)c1`: the IC50 is 0.05 µM. The same measure for `CC(C)(C)OC(=O)n1cc(-c2cc(Cl)ccc2Oc2cc(F)c(S(=O)(=O)Nc3nccs3)cc2F)cn1`: 0.056 µM; for `CC(C)(C)OC(=O)n1cc(-c2cc(Cl)ccc2Oc2cc(F)c(S(=O)(=O)Nc3ncc(F)s3)cc2F)cn1`: 0.025 µM. The same measure for `Nc1cc(-c2cc(Cl)ccc2Oc2cc(F)c(S(=O)(=O)Nc3cscn3)cc2F)ccn1`: 0.019 µM; for `NC1=NCN=C1c1cc(Cl)ccc1Oc1cc(F)c(S(=O)(=O)Nc2ccncn2)cc1Cl`: 0.021 µM; for `CCN1CC(n2nccc2-c2cc(C(F)(F)F)ccc2Oc2ccc(S(=O)(=O)Nc3cscn3)cc2C#N)C1`: 0.022 µM. As for `N#Cc1cc(S(=O)(=O)Nc2ncns2)ccc1Oc1ccc(Cl)cc1-c1ccnn1C1CCC1`, the IC50 was 0.012 µM. The molecule `N#Cc1cc(S(=O)(=O)Nc2ccc(F)cn2)ccc1Oc1ccc(CN2CCC2)c(F)c1` gave an IC50 of 30 µM. The same measure for `Cc1nc(-c2ccccc2Oc2ccc(S(=O)(=O)Nc3ccc(F)cn3)cc2C#N)cs1`: 30 µM; for `COc1cc(Oc2ccc(S(=O)(=O)Nc3ccc(F)cn3)cc2C#N)ccc1-n1cnc(C)c1`: 30 µM; for `N#Cc1cc(S(=O)(=O)Nc2ncns2)ccc1Oc1ccc(Cl)cc1-c1ccnn1C1CC1`: 0.017 µM. Under `N#Cc1cc(S(=O)(=O)Nc2ncns2)ccc1Oc1ccc(C(F)(F)F)cc1C1CCOCC1` stands 0.0088 µM. Under `N#Cc1ccc(Oc2cc(F)c(S(=O)(=O)Nc3ncns3)cc2Cl)c(-c2ccn[nH]2)c1` stands 0.0094 µM. In the case of `N#Cc1cc(S(=O)(=O)Nc2ncc(Cl)s2)ccc1Oc1ccc(F)cc1-c1cccc(N)n1`, inhibition was half-maximal at 0.01 µM (IC50). Under `O=S(=O)(Nc1ncc(Cl)s1)c1cc(Cl)c(Oc2ccc(Cl)cc2C2CNC2)cc1F` stands 0.01 µM. Turning to `CCn1nc(C(F)(F)F)cc1-c1ccc(Oc2ccc(S(=O)(=O)Nc3ncccc3F)cc2C#N)cc1`, half-maximal inhibition (IC50) was put at 14 µM.

`N#Cc1ccc(NS(=O)(=O)c2ccc(Oc3ccccc3-c3ccccc3)c(C#N)c2)nc1`: it took 25 µM to reach half-maximal inhibition (IC50). Under `Cn1nccc1-c1cc(Cl)ccc1Oc1ccc(S(=O)(=O)Nc2cncnc2)cc1C#N` stands 30 µM; under `O=S(=O)(Nc1nccs1)c1ccc(Oc2ccc(Oc3ccccc3)cc2)c(F)c1`, 10 µM; under `Cc1cc(Oc2ccc(S(=O)(=O)Nc3ncc(Cl)s3)cc2C#N)n(C2CCCCC2)n1`, 10 µM. Under `N#Cc1cc(S(=O)(=O)Nc2nccs2)ccc1Oc1ccccc1-c1ccno1` stands 10 µM; under `N#Cc1cc(S(=O)(=O)Nc2nccs2)ccc1Oc1ccccc1-c1nncn1-c1ccccc1`, 10 µM. `N#Cc1cc(S(=O)(=O)Nc2nccs2)ccc1Oc1cc(C2CC2)nn1-c1ccccn1` gave an IC50 of 10 µM. Turning to `O=S(=O)(Nc1cscn1)c1ccc(Oc2cc(C(F)(F)F)nn2-c2ccccc2)c(F)c1`, the IC50 is 10 µM. `CCn1nc(C(F)(F)F)cc1-c1ccc(Oc2ccc(S(=O)(=O)Nc3ccc(C#N)cn3)cc2C#N)cc1` gave an IC50 of 10 µM. Under `Cc1cncnc1NS(=O)(=O)c1ccc(Oc2ccccc2-c2ccccc2)c(C#N)c1` stands 10 µM. In turn, `Cc1cnc(NS(=O)(=O)c2ccc(Oc3ccccc3-c3ccccc3)c(C#N)c2)nc1` gave an IC50 of 10 µM. Under `N#Cc1cnc(NS(=O)(=O)c2ccc(Oc3ccccc3-c3ccccc3)c(C#N)c2)nc1` stands 10 µM; under `CC(C)(C)n1ccc(-c2c(F)cccc2Oc2ccc(S(=O)(=O)Nc3ncns3)cc2C#N)n1`, 10 µM; under `N#Cc1cnc(NS(=O)(=O)c2ccc(Oc3ccccc3-c3ccccc3)c(C#N)c2)s1`, 12.2 µM. With `N#Cc1cc(S(=O)(=O)Nc2ncns2)ccc1Oc1ccc(C(F)(F)F)cc1-c1cccnc1`, the IC50 is 0.012 µM. The same measure for `N#Cc1cc(S(=O)(=O)Nc2ncns2)ccc1Oc1cccc(Br)c1-c1cn[nH]c1`: 0.007 µM; for `O=S(=O)(Nc1ncns1)c1cc(F)c(Oc2ccc(Cl)cc2C2CCNCC2)cc1F`: 0.0084 µM; for `O=S(=O)(Nc1cscn1)c1cc(F)c(Oc2ccc(Cl)cc2-c2ccnc(N3CCNCC3)c2)cc1F`: 0.0037 µM. In turn, `CNc1ncc(Oc2ccc(S(=O)(=O)Nc3ncns3)cc2C#N)c(-c2ccc(F)cc2)n1` gave an IC50 of 12.5 µM. As for `Cc1cnc(NS(=O)(=O)c2ccc(Oc3ccc(Cl)cc3-c3ccnn3C)c(C#N)c2)cn1`, the IC50 was 10 µM. In the case of `Cn1nccc1NS(=O)(=O)c1ccc(Oc2ccc(Cl)cc2-c2ccnn2C)c(C#N)c1`, 10 µM corresponded to half-maximal inhibition (IC50). Under `Cc1nonc1NS(=O)(=O)c1ccc(Oc2ccc(Cl)cc2-c2ccnn2C)c(C#N)c1` stands 10 µM; under `COc1nccnc1NS(=O)(=O)c1ccc(Oc2ccc(Cl)cc2-c2ccnn2C)c(C#N)c1`, 10 µM. `Cn1nccc1-c1cc(Cl)ccc1Oc1ccc(S(=O)(=O)Nc2cc[nH]n2)cc1C#N` showed an IC50 of 10 µM. In turn, `Cn1nccc1-c1cc(Cl)ccc1Oc1ccc(S(=O)(=O)Nc2cccnc2)cc1C#N` showed an IC50 of 10 µM. `N#Cc1cc(S(=O)(=O)Nc2cnoc2)ccc1Oc1ccccc1-c1ccccc1`: the 50% inhibitory concentration (IC50) is 10 µM. The same measure for `N#Cc1cc(S(=O)(=O)Nc2nccs2)ccc1Oc1ccc(-c2cnn(CC(F)(F)F)c2N)cc1`: 10 µM; for `CCc1nsc(NS(=O)(=O)c2ccc(Oc3ccccc3-c3ccccc3)c(C#N)c2)n1`: 10 µM.

In turn, `N#Cc1cc(S(=O)(=O)Nc2ncns2)ccc1Oc1cnc(N)nc1-c1ccc(Cl)cc1` had a 50% inhibitory concentration (IC50) of 10 µM. Under `N#Cc1cc(S(=O)(=O)Nc2ncns2)ccc1Oc1nccnc1-c1ccccc1` stands 10 µM; under `N#Cc1cc(S(=O)(=O)Nc2ncns2)ccc1Oc1nnccc1-c1ccccc1`, 10 µM. `N#Cc1cc(S(=O)(=O)Nc2ncns2)ccc1Oc1ccccc1Oc1ccccc1C(N)=O` gave an IC50 of 10 µM. The same measure for `N#Cc1cc(S(=O)(=O)Nc2ncco2)ccc1Oc1ccccc1-c1ccccc1`: 10 µM; for `CC(C)c1nsc(NS(=O)(=O)c2ccc(Oc3ccccc3-c3ccccc3)c(C#N)c2)n1`: 10 µM; for `N#Cc1cc(S(=O)(=O)Nc2ccccc2)ccc1Oc1ccccc1-c1ccccc1`: 10 µM. For the molecule `N#Cc1cc(S(=O)(=O)Nc2cc(C(F)(F)F)ncn2)ccc1Oc1ccccc1-c1ccccc1`, the IC50 was 10 µM.

Take `N#Cc1cc(S(=O)(=O)Nc2ncsn2)ccc1Oc1ccccc1-c1ccccc1`: the IC50 is 4.6 µM.

The molecule `N#Cc1cc(S(=O)(=O)Nc2cnsn2)ccc1Oc1ccccc1-c1ccccc1` had an IC50 of 5.68 µM. Take `Cc1ccc(Oc2ccc(S(=O)(=O)Nc3nccs3)cc2F)c(-c2ccn(C)n2)c1`: the IC50 is 6.44 µM. The same measure for `NCc1cc(-c2cc(Cl)ccc2Oc2cc(F)c(S(=O)(=O)Nc3ncns3)cc2Cl)ccn1`: 0.0049 µM; for `Nc1cc(-c2cc(OC(F)(F)F)ccc2Oc2cc(F)c(S(=O)(=O)Nc3ncns3)cc2F)ccn1`: 0.0024 µM. In turn, `N#Cc1cc(S(=O)(=O)Nc2nccs2)ccc1Oc1ccc(-c2ccc(C(F)(F)F)cn2)cc1` had an IC50 of 3.3 µM.

What is called IC50 is the concentration needed to halve the response being measured. Lower therefore signals greater potency.
